Numbered stars: 1 amine (or outer) side, 2 acyl side, 3 side chain; on linkers, the order of the positions; unused ones are H or OH. Bridge positions count the residues as written; N and C are the ends. Square brackets hold non-standard residues; d marks the D form. Side chains are listed from the residue outwards. Peptide text beside a SMILES is read from it. * marks the point of attachment. C20 diacid = O=C(O)CCCCCCCCCCCCCCCCCCC(=O)*; γGlu = O=C(O)[C@H](CCC(=O)[*:2])N[*:1]; Hyp = O=C(O)[C@@H]1C[C@@H](O)CN1; hArg = N=C(N)NCCCC[C@H](N)C(=O)O; AEEA = NCCOCCOCC(=O)O

For this test, the target named is T1, human amylin receptor (Homo sapiens, UniProt O60896+P30988).
T1 construct: host or cells: CHO-K1/Ga15/AMY3 cells, further stably transfected with a CRE-luciferase plasmid
T1 sequence (P30988 25-474): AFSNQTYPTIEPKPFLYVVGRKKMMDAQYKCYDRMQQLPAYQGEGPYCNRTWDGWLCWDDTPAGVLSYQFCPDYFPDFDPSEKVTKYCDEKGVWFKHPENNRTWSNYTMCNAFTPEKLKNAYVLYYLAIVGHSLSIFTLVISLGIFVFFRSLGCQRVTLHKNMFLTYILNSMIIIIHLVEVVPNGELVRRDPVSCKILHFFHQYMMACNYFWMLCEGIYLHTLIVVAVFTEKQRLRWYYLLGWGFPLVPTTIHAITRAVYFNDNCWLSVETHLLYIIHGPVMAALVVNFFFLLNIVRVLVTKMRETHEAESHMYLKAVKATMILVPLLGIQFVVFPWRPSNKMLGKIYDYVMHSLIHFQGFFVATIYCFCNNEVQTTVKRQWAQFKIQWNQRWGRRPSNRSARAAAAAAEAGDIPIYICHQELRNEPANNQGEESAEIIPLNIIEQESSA
T1 sequence (O60896 24-148 partner): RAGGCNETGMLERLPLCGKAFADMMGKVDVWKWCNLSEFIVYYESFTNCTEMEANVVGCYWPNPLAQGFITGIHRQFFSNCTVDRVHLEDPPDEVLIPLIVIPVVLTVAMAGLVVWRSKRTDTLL
Description: Luciferase assay of amylin derivatives in amylin receptor/CRE-luc CHO cell line. The format is cell-based. Particulars: CHO-K1/Ga15/AMY3 CRE-luc cells, 24 hours incubation, F12 medium containing 10% FBS; read-out: EC50.
Description: The experiment was intended to detect the activity or efficacy of the amylin derivatives on a human amylin receptor in vitro by luciferase assay.
50 μL of growth medium (F12 medium containing 10% FBS) was added into each well of a white 96-well plate, and the stably transfected amylin/CRE-lue CHO cells were inoculated into the white 96-well plate at a density of about 20,000 cells/well for activity determination.
For orientation: EC50 means the concentration needed to bring the measured effect to its halfway point. For the compound `CC[C@H](C)[C@H](NC(=O)[C@@H]1CCCN1C(=O)CNC(=O)[C@H](CC(C)C)NC(=O)[C@H](CC(N)=O)NC(=O)[C@H](CC(N)=O)NC(=O)[C@H](CO)NC(=O)[C@H](CCCCNC(=O)CC[C@H](NC(=O)CCCCCCCCCCCCCCCCCCC(=O)O)C(=O)O)NC(=O)[C@H](Cc1c[nH]cn1)NC(=O)[C@H](CCCNC(=N)N)NC(=O)[C@H](CC(C)C)NC(=O)[C@H](Cc1ccccc1)NC(=O)[C@H](CC(=O)O)NC(=O)[C@H](C)NC(=O)[C@H](CC(C)C)NC(=O)[C@H](CCCNC(=N)N)NC(=O)[C@H](CCC(N)=O)NC(=O)[C@@H](NC(=O)[C@H](C)NC(=O)[C@@H]1CSSC[C@H](NC(=O)[C@@H](N)CCCNC(=N)N)C(=O)N[C@@H](CC(N)=O)C(=O)N[C@@H]([C@@H](C)O)C(=O)N[C@@H](C)C(=O)N[C@@H]([C@@H](C)O)C(=O)N1)[C@@H](C)O)C(=O)N[C@@H](CC(C)C)C(=O)N1CCC[C@H]1C(=O)N1CCC[C@H]1C(=O)N[C@H](C(=O)N[C@@H](CC(N)=O)C(=O)N[C@H](C(=O)NCC(=O)N[C@@H](CO)C(=O)N[C@@H](CC(N)=O)C(=O)N[C@H](C(=O)N1C[C@H](O)C[C@H]1C(N)=O)[C@@H](C)O)C(C)C)[C@@H](C)O` [PD098] (H-RCNTATCATQRLADFLRHK([γGlu-C20 diacid])SNNLGPILPPTNVGSNT[Hyp]-NH2; disulfide 2-7), the EC50 worked out at 0.077 nM.

Regarding `CC[C@H](C)[C@H](NC(=O)[C@@H]1CCCN1C(=O)CNC(=O)[C@H](CC(C)C)NC(=O)[C@H](CC(N)=O)NC(=O)[C@H](CC(N)=O)NC(=O)[C@H](CCCCNC(=O)COCCOCCNC(=O)CC[C@H](NC(=O)CCCCCCCCCCCCCCCCCCC(=O)O)C(=O)O)NC(=O)[C@H](CO)NC(=O)[C@H](Cc1c[nH]cn1)NC(=O)[C@H](CCCNC(=N)N)NC(=O)[C@H](CC(C)C)NC(=O)[C@H](Cc1ccccc1)NC(=O)[C@H](CC(=O)O)NC(=O)[C@H](C)NC(=O)[C@H](CC(C)C)NC(=O)[C@H](CCCNC(=N)N)NC(=O)[C@H](CCC(N)=O)NC(=O)[C@@H](NC(=O)[C@H](C)NC(=O)[C@@H]1CSSC[C@H](NC(=O)[C@@H](N)CCCNC(=N)N)C(=O)N[C@@H](CC(N)=O)C(=O)N[C@@H]([C@@H](C)O)C(=O)N[C@@H](C)C(=O)N[C@@H]([C@@H](C)O)C(=O)N1)[C@@H](C)O)C(=O)N[C@@H](CC(C)C)C(=O)N1CCC[C@H]1C(=O)N1CCC[C@H]1C(=O)N[C@H](C(=O)N[C@@H](CC(N)=O)C(=O)N[C@H](C(=O)NCC(=O)N[C@@H](CO)C(=O)N[C@@H](CC(N)=O)C(=O)N[C@H](C(=O)N1C[C@H](O)C[C@H]1C(N)=O)[C@@H](C)O)C(C)C)[C@@H](C)O` [PD116] (H-RCNTATCATQRLADFLRHSK([AEEA-γGlu-C20 diacid])NNLGPILPPTNVGSNT[Hyp]-NH2; disulfide 2-7), the EC50 turned out to be 0.033 nM.

Consider `CC[C@H](C)[C@H](NC(=O)[C@@H]1CCCN1C(=O)CNC(=O)[C@H](Cc1ccccc1)NC(=O)[C@H](CC(N)=O)NC(=O)[C@H](CC(N)=O)NC(=O)[C@H](CO)NC(=O)[C@H](CO)NC(=O)[C@H](Cc1c[nH]cn1)NC(=O)[C@H](CCCNC(=N)N)NC(=O)[C@H](CC(C)C)NC(=O)[C@H](Cc1ccccc1)NC(=O)[C@H](CC(=O)O)NC(=O)[C@H](C)NC(=O)[C@H](CC(C)C)NC(=O)[C@H](CCCNC(=N)N)NC(=O)[C@H](CCC(N)=O)NC(=O)[C@@H](NC(=O)[C@H](C)NC(=O)[C@@H]1CSSC[C@H](NC(=O)[C@@H](N)CCCCNC(=O)CC[C@H](NC(=O)CCCCCCCCCCCCCCCCCCC(=O)O)C(=O)O)C(=O)N[C@@H](CC(N)=O)C(=O)N[C@@H]([C@@H](C)O)C(=O)N[C@@H](C)C(=O)N[C@@H]([C@@H](C)O)C(=O)N1)[C@@H](C)O)C(=O)N[C@@H](CC(C)C)C(=O)N1CCC[C@H]1C(=O)N1CCC[C@H]1C(=O)N[C@H](C(=O)N[C@@H](CC(N)=O)C(=O)N[C@H](C(=O)NCC(=O)N[C@@H](CO)C(=O)N[C@@H](CC(N)=O)C(=O)N[C@H](C(=O)N1C[C@H](O)C[C@H]1C(N)=O)[C@@H](C)O)C(C)C)[C@@H](C)O` [PD068] (H-K([γGlu-C20 diacid])CNTATCATQRLADFLRHSSNNFGPILPPTNVGSNT[Hyp]-NH2; disulfide 2-7), for which the EC50 came to 0.032 nM.

As for `CC[C@H](C)[C@H](NC(=O)[C@@H]1CCCN1C(=O)[C@H](CCCCNC(=O)CC[C@H](NC(=O)CCCCCCCCCCCCCCCCCCC(=O)O)C(=O)O)NC(=O)[C@H](CC(C)C)NC(=O)[C@H](CC(N)=O)NC(=O)[C@H](CC(N)=O)NC(=O)[C@H](CO)NC(=O)[C@H](CO)NC(=O)[C@H](Cc1c[nH]cn1)NC(=O)[C@H](CCCNC(=N)N)NC(=O)[C@H](CC(C)C)NC(=O)[C@H](Cc1ccccc1)NC(=O)[C@H](CC(=O)O)NC(=O)[C@H](C)NC(=O)[C@H](CC(C)C)NC(=O)[C@H](CCCNC(=N)N)NC(=O)[C@H](CCC(N)=O)NC(=O)[C@@H](NC(=O)[C@H](C)NC(=O)[C@@H]1CSSC[C@H](NC(=O)[C@@H](N)CCCCNC(=N)N)C(=O)N[C@@H](CC(N)=O)C(=O)N[C@@H]([C@@H](C)O)C(=O)N[C@@H](C)C(=O)N[C@@H]([C@@H](C)O)C(=O)N1)[C@@H](C)O)C(=O)N[C@@H](CC(C)C)C(=O)N1CCC[C@H]1C(=O)N1CCC[C@H]1C(=O)N[C@H](C(=O)N[C@@H](CC(N)=O)C(=O)N[C@H](C(=O)NCC(=O)N[C@@H](CO)C(=O)N[C@@H](CC(N)=O)C(=O)N[C@H](C(=O)N1C[C@H](O)C[C@H]1C(N)=O)[C@@H](C)O)C(C)C)[C@@H](C)O` [PD077] (H-[hArg]CNTATCATQRLADFLRHSSNNLK([γGlu-C20 diacid])PILPPTNVGSNT[Hyp]-NH2; disulfide 2-7), the EC50 amounted to 0.034 nM.

On to `CC[C@H](C)[C@H](NC(=O)[C@@H]1CCCN1C(=O)[C@H](CCCCNC(=O)CC[C@H](NC(=O)CCCCCCCCCCCCCCCCCCC(=O)O)C(=O)O)NC(=O)[C@H](CC(C)C)NC(=O)[C@H](CC(N)=O)NC(=O)[C@H](CC(N)=O)NC(=O)[C@H](CO)NC(=O)[C@H](CO)NC(=O)[C@H](Cc1c[nH]cn1)NC(=O)[C@H](CCCNC(=N)N)NC(=O)[C@H](CC(C)C)NC(=O)[C@H](Cc1ccccc1)NC(=O)[C@H](CC(=O)O)NC(=O)[C@H](C)NC(=O)[C@H](CC(C)C)NC(=O)[C@H](CCCNC(=N)N)NC(=O)[C@H](CCC(N)=O)NC(=O)[C@@H](NC(=O)[C@H](C)NC(=O)[C@@H]1CSSC[C@H](NC(=O)[C@@H](N)CCCCN)C(=O)N[C@@H](CC(N)=O)C(=O)N[C@@H]([C@@H](C)O)C(=O)N[C@@H](C)C(=O)N[C@@H]([C@@H](C)O)C(=O)N1)[C@@H](C)O)C(=O)N[C@@H](CC(C)C)C(=O)N1CCC[C@H]1C(=O)N1CCC[C@H]1C(=O)N[C@H](C(=O)N[C@@H](CC(N)=O)C(=O)N[C@H](C(=O)NCC(=O)N[C@@H](CO)C(=O)N[C@@H](CC(N)=O)C(=O)N[C@H](C(=O)N1C[C@H](O)C[C@H]1C(N)=O)[C@@H](C)O)C(C)C)[C@@H](C)O` [PD076] (H-KCNTATCATQRLADFLRHSSNNLK([γGlu-C20 diacid])PILPPTNVGSNT[Hyp]-NH2; disulfide 2-7), for which the concentration for a half-maximal effect (EC50) was found to be 0.04 nM.

Values taken from patent US20260166128A1, “HUMAN AMYLIN ANALOG, AND DERIVATIVE THEREOF AND USE THEREOF” (priority 2022, published 2026).
